Patent publication US20260317332A1, “BICYCLIC HETEROCYCLE COMPOUNDS FOR THE TREATMENT OF CANCER” (Hoffmann-La Roche Inc., priority 2023, published 2026)
pEC50, pIC50: −log10 of the molar value.

Experiments:
CD73 [1] = target: T1, CD73 (Homo sapiens, UniProt P21589); experiment: Human CD73 Biochemical Assay; settings: 0.05 nM recombinant CD73; AMP 5.56 μM final; 10 min at room temperature; LC/MS adenosine readout; read-out: Enzymatic IC50 against human CD73
T1 sequence (P21589 27-574): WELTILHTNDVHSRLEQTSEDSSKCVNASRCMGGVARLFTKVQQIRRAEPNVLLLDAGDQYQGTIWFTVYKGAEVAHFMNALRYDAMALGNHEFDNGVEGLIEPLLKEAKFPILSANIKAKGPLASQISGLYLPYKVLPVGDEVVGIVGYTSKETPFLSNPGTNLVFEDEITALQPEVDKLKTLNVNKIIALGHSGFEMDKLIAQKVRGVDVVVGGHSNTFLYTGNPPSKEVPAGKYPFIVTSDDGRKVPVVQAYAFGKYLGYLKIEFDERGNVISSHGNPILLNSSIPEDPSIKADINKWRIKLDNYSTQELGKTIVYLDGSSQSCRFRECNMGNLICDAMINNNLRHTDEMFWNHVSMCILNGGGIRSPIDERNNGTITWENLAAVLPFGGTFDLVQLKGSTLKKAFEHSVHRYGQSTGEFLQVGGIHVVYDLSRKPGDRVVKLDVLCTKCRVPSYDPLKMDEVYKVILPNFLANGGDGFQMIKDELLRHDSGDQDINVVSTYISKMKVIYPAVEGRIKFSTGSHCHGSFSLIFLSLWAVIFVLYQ
In short: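 Recombinant CD73 at 0.05 nM was preincubated with compound 15 min at room temperature in Tris pH 7.5 buffer with 1 mM NaH2PO4. Reaction ran 10 min with 5.56 μM AMP final and was stopped with TCA. Adenosine was quantified by LC-MS/MS MRM against a 13C5-adenosine internal standard using peak area ratios.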

CD73 [2] = target: T1, CD73; experiment: CD73 Cellular Assay; assay type: cell-based; set-up: 40 μL of MDA-MB-231 cells (ATCC, HTB-26, breast cancer); host or cells: MDA-MB-231; settings: MDA-MB-231 cells; 200 μM AMP working solution; 45 min at 37° C.; malachite readout; read-out: Cellular IC50 against CD73
In short: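 MDA-MB-231 cells (20,000 cells/mL) in HEPES pH 7.4 buffer preincubated 30 min with 1:3 compound dilutions, then AMP (200 μM working solution) added for 45 min at 37 °C, 5% CO2. Released phosphate in supernatant detected by malachite green absorbance at 620 nm; % inhibition normalised to neutral and inhibitor controls.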

CD4+ T cells = experiment: T Cell Proliferation Assay: CD4+ T cell proliferation; assay type: cell-based; settings: Homo sapiens, high AMP condition (200 μM AMP, 5 μM EHNA), CD3/CD28 beads, 72 hours, read-out: CD4+ T cell proliferation EC50 (rescue of proliferation)
Method: (§1) The purpose of this assay is to characterize the potency of inhibitors of CD73 in rescuing adenosine-mediated inhibition of T cell proliferation. CD4+ or CD8+ T cells were isolated from peripheral blood mononuclear cells (PBMCs, HemaCare) by immunomagnetic negative selection using EasySep™ Isolation Kit (STEMCELL Technologies) following the supplier's protocol. Pan T cells were pelleted by centrifugation at 300 gravitational force (g) for 5 minutes at room temperature and re-suspended in PBS. CellTrace™ Violet staining solution (Invitrogen) was added at 1:5,000 and incubated at 37° C. for 20 minutes, protected from light. Complete culture medium [RPMI-1640 (Gibco), 10% Fetal Bovine Serum (Gibco), 2 mM GlutaMAX (Gibco) and 1 mM Sodium Pyruvate (Gibco), 100 U/mL Penicillin-Streptomycin (Gibco) and MEM non-essential amino acids (NEAA) cell culture supplement (1:100, Gibco)] was then added, mixed, and incubated at 37° C. for 5 minutes. Cells were then pelleted by centrifugation at 300 g for 5 minutes at room temperature and re-suspended in fresh, pre-warmed complete culture medium. 50 μL of cells were seeded per well in 96 well u-bottom plates. 50 μL of CD3/CD28 beads-containing medium and 50 μL of media containing compounds were added into cells. 50 μL of media containing AMP and EHNA hydrochloride (Sigma-Aldrich) was added into cells at 200 μM and 5 μM final concentration, respectively. Cells were incubated for 72 hours at 37° C. in a 5% CO2 incubator. 200 μL of PBS was then added to each well and cells were centrifuged at 300 g, 4° C. for 10 minutes. The supernatant was discarded. 50 μL of Human TruStain FcX™ (Fc Receptor Blocking Solution, BioLegend) diluted 1:100 in PBS was added to each well, mixed gently and incubated for 20 minutes at 4° C. 50 μL of staining solution (BioLegend) was added to each well, mixed gently and incubated at 4° C. for 30 minutes. Cells were centrifuged at 300 g, 4° C. for 10 minutes and the supernatant was discarded. The cell pellets were washed with 250 μL of cell staining buffer and centrifuged at 300 g, 4° C. for 10 minutes. The supernatant was discarded and cells were re-suspended in 60 μL of cell staining buffer and analyzed on a flow cytometer.

CD8+ T cells = experiment: T Cell Proliferation Assay: CD8+ T cell proliferation; assay type: cell-based; settings: high AMP condition (200 μM AMP, 5 μM EHNA), CD3/CD28 beads, 72 hours, read-out: CD8+ T cell proliferation EC50 (rescue of proliferation)
Method: as §1

SMILES: Cn1nc(O[C@H](c2cc(OC3CC(F)(F)C3)ncn2)C(F)F)c2cc(-c3c[nH]c(=O)[nH]c3=O)nnc21 [Example 42A, 5-[3-[(1R)-1-[6-(3,3-difluorocyclobutoxy)pyrimidin-4-yl]-2,2-difluoro-ethoxy]-1-methyl-pyrazolo[3,4-c]pyridazin-5-yl]-1H-pyrimidine-2,4-dione]
- pIC50 (CD73 [1]): 10.22
- pIC50 (CD73 [2]): 9.12
- pEC50 (CD4+ T cells): 9.66
- pEC50 (CD8+ T cells): 9.74
